The values below come from US12668591B2, “1,2,4-oxadiazole derivatives as histone deacetylase 6 inhibitors” (Oryzon Genomics, S.A., priority 2017, dated 2026).

The target of test [1] is T1, HDAC6 (Homo sapiens, UniProt Q9UBN7).
T1 sequence (Q9UBN7 1-1215): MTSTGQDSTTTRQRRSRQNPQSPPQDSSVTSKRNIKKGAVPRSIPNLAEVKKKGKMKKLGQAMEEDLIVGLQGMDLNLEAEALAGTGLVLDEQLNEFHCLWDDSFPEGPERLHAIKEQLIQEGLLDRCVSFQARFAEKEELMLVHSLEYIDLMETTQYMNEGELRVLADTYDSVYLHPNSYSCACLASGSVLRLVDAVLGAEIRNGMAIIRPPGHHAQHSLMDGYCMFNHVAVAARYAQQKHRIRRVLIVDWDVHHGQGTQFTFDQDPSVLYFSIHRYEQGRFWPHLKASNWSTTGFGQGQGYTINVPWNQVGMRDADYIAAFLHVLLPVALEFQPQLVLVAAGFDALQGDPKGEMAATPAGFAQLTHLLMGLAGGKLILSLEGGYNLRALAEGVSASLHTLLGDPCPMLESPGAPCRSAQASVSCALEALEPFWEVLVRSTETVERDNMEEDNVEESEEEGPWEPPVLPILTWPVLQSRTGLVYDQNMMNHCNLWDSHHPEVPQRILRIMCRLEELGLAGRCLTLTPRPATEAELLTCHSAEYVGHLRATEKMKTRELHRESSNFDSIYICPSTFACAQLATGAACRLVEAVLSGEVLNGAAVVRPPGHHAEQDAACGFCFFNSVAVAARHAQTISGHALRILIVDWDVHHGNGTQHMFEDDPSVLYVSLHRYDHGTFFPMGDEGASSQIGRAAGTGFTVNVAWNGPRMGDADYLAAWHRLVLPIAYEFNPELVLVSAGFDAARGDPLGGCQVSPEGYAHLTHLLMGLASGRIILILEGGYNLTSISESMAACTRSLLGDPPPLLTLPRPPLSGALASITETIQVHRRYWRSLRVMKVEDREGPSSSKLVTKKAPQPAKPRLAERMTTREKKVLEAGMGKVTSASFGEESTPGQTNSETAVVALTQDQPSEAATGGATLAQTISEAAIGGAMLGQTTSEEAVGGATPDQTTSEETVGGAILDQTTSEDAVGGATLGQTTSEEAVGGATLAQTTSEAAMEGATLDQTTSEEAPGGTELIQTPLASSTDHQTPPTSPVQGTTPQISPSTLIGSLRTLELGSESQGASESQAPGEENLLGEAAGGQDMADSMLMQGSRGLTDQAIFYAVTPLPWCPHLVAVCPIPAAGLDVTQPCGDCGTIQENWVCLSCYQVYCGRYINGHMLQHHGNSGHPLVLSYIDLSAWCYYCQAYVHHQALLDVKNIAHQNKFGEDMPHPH
Nature of the test: In vitro cell-based assay: acetylation levels of Alpha-Tubulin by Western Blot in MOLP8 cells. Details: endogenous in cells; host or cells: MOLP8. To be noted: 18 h, acetyl-alpha-tubulin relative band intensity, ACY-1215 1 μM = 100%. As to the method:
In Vitro Cell-Based Assay
In order to determine the cellular activity of HDAC6 upon treatment with HDAC6 inhibitors, acetylation levels of Alpha-Tubulin (a HDAC6-specific substrate) were measured by Western Blot. For this, MOLP8 cells were seeded in 6-well plates at a cell density of 500.000 cells/well and treated with the selected compounds at 5 and 1 μM for 18 h at 37° C. and 5% CO2 in a humidified tissue culture incubator. Consecutively, cell pellets were collected and whole protein extracts prepared using RIPA buffer (SIGMA) supplemented with 1× protease inhibitors (cOmplete mini, Roche). Protein concentration was determined with Bradford's reagent (Bio-Rad) as per manufacturer's instructions, and 7 μg of total protein were loaded into pre-cast 10% NuPAGE Novex gels (Life Technologies). Gels were run in […] (Life Technologies) and proteins were transferred using the iBlot 2 Dry Blotting System (Life Technologies). Blots were subsequently rinsed in distilled water and stained with Ponceau S solution (SIGMA). Blots were then washed in distilled water to remove Ponceau excess and scanned with the Epson Perfection V600 Photo professional Scanner. After this, blots were de-stained and blocked in 5% milk/PBS-Tween 0.1% for 1 h at room temperature followed by incubation with anti-Acetyl-alpha Tubulin (SIGMA cat. #T7451, 1:10.000 dilution) and anti-Beta-actin (SIGMA, cat. #A5316, 1:2.000 dilution) primary antibodies in 5% milk/PBS-T 0.1%, overnight at 4° C. on a shaking platform. After incubation, blots were washed 3 times for 5 minutes each in PBS-Tween 0.5% and incubated with anti-mouse HRP-conjugated secondary antibody (Jackson Immuno Research, cat. #115-035-068) at 1:8.000 in 5% milk/PBS-Tween 0.1%, 1 h at room temperature on a shaking platform. After 3 washes of 5 minutes each with PBS-Tween 0.5% and 1 wash in PBS 1×, blots were developed with ECL Plus (GE Healthcare) and the chemiluminescent reaction imaged with the G:Box Chemi XRQ (Syngene) imaging system. WB and Ponceau images were analysed with ImageJ software, WB band intensities normalized by either total protein or Beta-actin content and made relative to ACY-1215 1 μM (equivalent to 100%). ACY-1215 is a HDAC6 inhibitor, and is also known as ricolinostat, with chemical name 2-(diphenylamino)-N-[7-(hydroxyamino)-7-oxoheptyl]-5-pyrimidinecarboxamide. Percentage of band intensities was classified as follows: […]
(A western blot detects proteins with antibodies after separation by electrophoresis.)

In test [2] the target is T1, HDAC6. Nature of the test: HDAC6 enzyme inhibition assay (fluorimetric). It counts as biochemical. To be noted: 1 μM compound; 3 h pre-incubation; recombinant full length HDAC6; read-out: HDAC6 % inh @ 1 μM. The protocol:
HDAC6 and HDAC2 Enzyme Inhibition Assay
A fluorimetric assay was used for testing the activity of compounds of the invention against HDAC6 and HDAC2.
The compounds were dissolved in DMSO. Serial dilutions were prepared in DMSO and then diluted 1:10 in HDAC assay buffer (Tris-buffered solution, BPS Bioscience Inc. #50031). 5 μl of the compound dilution was added to a 50 μl reaction so that the final concentration of DMSO was 1%.
The compounds were pre-incubated in duplicate at RT for 3 hours in a mixture containing HDAC assay buffer, 5 μg BSA and recombinant HDAC enzyme (see table above). The enzymatic reactions were initiated by the addition of a fluorogenic, acetylated peptide substrate based on a histone protein (BPS Bioscience Inc. #50037) to a final concentration of 10 μM. The enzymatic reaction proceeded for 30 minutes at 37° C. Then, 50 μl of 2× HDAC Developer, which contains peptidase activity and Trichostatin A (BPS Bioscience Inc. #50030) was added and the plate was incubated at RT for an additional 15 minutes. Fluorescence intensity was measured at an excitation of 360 nm and an emission of 460 nm using a Tecan Infinite M1000 microplate reader.
Trichostatin A (TSA, Selleckchem #S1045) was used as reference inhibitor.
The fluorescent intensity data were analyzed using the computer software Graphpad Prism (GraphPad Software, San Diego, CA). 100% activity was defined as the fluorescent intensity (Ft) in the absence of the compound. 0% activity was defined as the fluorescent intensity (Fb) in the absence of the enzyme. The percent activity in the presence of each compound was calculated according to the following equation: % activity=(F−Fb)/(Ft−Fb), where F=the fluorescent intensity in the presence of the compound.

In the case of `CCCCn1ccc2cc(-c3cc(-c4noc(C(F)(F)F)n4)ccn3)ncc21` [Example 1, 3-(2-(1-Butyl-1H-pyrrolo[2,3-c]pyridin-5-yl)pyridin-4-yl)-5-(trifluoromethyl)-1,2,4-oxadiazole], in test [1], the “Cellular activity @1 uM” value is “− (<50)” and the “Cellular activity @5 uM” value was “+ (50-150)”. For the same molecule, the inhibition at 1 µM in test [2] stood at 79%.

As to `FC(F)(F)c1nc(-c2ccnc(-c3cc4c(CN5CCCCC5)n[nH]c4cn3)c2)no1` [Example 1aa, 3-(2-(3-(Piperidin-1-ylmethyl)-1H-pyrazolo[3,4-c]pyridin-5-yl)pyridin-4-yl)-5-(trifluoromethyl)-1,2,4-oxadiazole], in test [1], the “Cellular activity @1 uM” value is given as “+ (50-150)” and the “Cellular activity @5 uM” value is “+ (50-150)”. Besides, the inhibition at 1 µM in test [2] is 92%.

For `COCCn1ncc2cc(-c3cc(-c4noc(C(F)(F)F)n4)ccn3)ncc21` [Example 1ay, 3-(2-(1-(2-Methoxyethyl)-1H-pyrazolo[3,4-c]pyridin-5-yl)pyridin-4-yl)-5-(trifluoromethyl)-1,2,4-oxadiazole], in test [1], the “Cellular activity @1 uM” value is given as “− (<50)” and the “Cellular activity @5 uM” value is listed as “+ (50-150)”.

For `CCCCn1c(C(=O)N(C)C)cc2cc(-c3cc(-c4noc(C(F)(F)F)n4)ccn3)ncc21` [Example 1b, 1-Butyl-N,N-dimethyl-5-(4-(5-(trifluoromethyl)-1,2,4-oxadiazol-3-yl)pyridin-2-yl)-1H-pyrrolo[2,3-c]pyridine-2-carboxamide], in test [1], the “Cellular activity @1 uM” value is “+ (50-150)” and the “Cellular activity @5 uM” value was “++ (150-300)”. For the same molecule, the inhibition at 1 µM in test [2] came out at 84%.

`CCCCn1c(C(=O)NCC)cc2cc(-c3cc(-c4noc(C(F)(F)F)n4)ccn3)ncc21` [Example 1d, 1-Butyl-N-ethyl-5-(4-(5-(trifluoromethyl)-1,2,4-oxadiazol-3-yl)pyridin-2-yl)-1H-pyrrolo[2,3-c]pyridine-2-carboxamide]: in test [1], the “Cellular activity @1 uM” value is listed as “+ (50-150)” and the “Cellular activity @5 uM” value was “++ (150-300)”. In test [2], the inhibition at 1 µM stood at 78%.

Regarding `CCCCN(C(=O)CCOC)c1ccc(-c2cc(-c3noc(C(F)(F)F)n3)ccn2)nc1` [Example 1i, N-Butyl-3-methoxy-N-(4′-(5-(trifluoromethyl)-1,2,4-oxadiazol-3-yl)-[2,2′-bipyridin]-5-yl)propanamide], in test [1], the “Cellular activity @1 uM” value is given as “− (<50)” and the “Cellular activity @5 uM” value is recorded as “+ (50-150)”.

On to `CN(CCCN1CCC(F)(F)CC1)c1ccc(-c2cc(-c3noc(C(F)(F)F)n3)ccn2)nc1` [Example 1l, N-(3-(4,4-Difluoropiperidin-1-yl)propyl)-N-methyl-4′-(5-(trifluoromethyl)-1,2,4-oxadiazol-3-yl)-[2,2′-bipyridin]-5-amine], for which, in test [1], the “Cellular activity @1 uM” value is “− (<50)” and the “Cellular activity @5 uM” value was “+ (50-150)”.

Consider `CCN(CC)CCCN(C)c1ccc(-c2cc(-c3noc(C(F)(F)F)n3)ccn2)nc1` [Example 1n, N^1,N^1-Diethyl-N^3-methyl-N^3-(4′-(5-(trifluoromethyl)-1,2,4-oxadiazol-3-yl)-2,2′-bipyridin-5-yl)propane-1,3-diamine], for which, in test [1], the “Cellular activity @1 uM” value is on record as “− (<50)” and the “Cellular activity @5 uM” value is reported as “+ (50-150)”.

Take `CCN(CCCOc1ccc(-c2cc(-c3noc(C(F)(F)F)n3)ccn2)nc1)CCc1ccccc1` [Example 1p, N-Ethyl-N-phenethyl-3-((4′-(5-(trifluoromethyl)-1,2,4-oxadiazol-3-yl)-[2,2′-bipyridin]-5-yl)oxy)propan-1-amine]: in test [1], the “Cellular activity @1 uM” value was “− (<50)” and the “Cellular activity @5 uM” value was “++ (150-300)”.

As for `FC1(F)CCN(CCOc2ccnc(-c3cc(-c4noc(C(F)(F)F)n4)ccn3)c2)CC1` [Example 1s, 3-(4′-(2-(4,4-Difluoropiperidin-1-yl)ethoxy)-[2,2′-bipyridin]-4-yl)-5-(trifluoromethyl)-1,2,4-oxadiazole], in test [1], the “Cellular activity @1 uM” value is reported as “− (<50)” and the “Cellular activity @5 uM” value is “+ (50-150)”.

As to `CNCCCOc1ccc(-c2cc(-c3noc(C(F)(F)F)n3)ccn2)nc1` [Example 2, N-Methyl-3-((4′-(5-(trifluoromethyl)-1,2,4-oxadiazol-3-yl)-[2,2′-bipyridin]-5-yl)oxy)propan-1-amine], in test [1], the “Cellular activity @1 uM” value is reported as “− (<50)” and the “Cellular activity @5 uM” value is reported as “+ (50-150)”.

Consider `FC(F)(F)c1nc(-c2ccnc(-n3ncc4cccnc43)c2)no1` [Example 6, 3-(2-(1H-Pyrazolo[3,4-b]pyridin-1-yl)pyridin-4-yl)-5-(trifluoromethyl)-1,2,4-oxadiazole], for which, in test [1], the “Cellular activity @1 uM” value was “+ (50-150)” and the “Cellular activity @5 uM” value is “+ (50-150)”.

With `CN(C)CCCOc1ccc(-c2cc(-c3noc(C(F)(F)F)n3)ccn2)nc1` [Example 7, N,N-Dimethyl-3-((4′-(5-(trifluoromethyl)-1,2,4-oxadiazol-3-yl)-[2,2′-bipyridin]-5-yl)oxy)propan-1-amine], in test [1], the “Cellular activity @1 uM” value is listed as “− (<50)” and the “Cellular activity @5 uM” value is recorded as “+ (50-150)”.

In the case of `Cn1nc(-c2cc(-c3noc(C(F)(F)F)n3)ccn2)c2ncccc21` [Example 7a, 3-(2-(1-Methyl-1H-pyrazolo[4,3-b]pyridin-3-yl)pyridin-4-yl)-5-(trifluoromethyl)-1,2,4-oxadiazole], in test [1], the “Cellular activity @1 uM” value is recorded as “+ (50-150)” and the “Cellular activity @5 uM” value was “++ (150-300)”.
